Assays:
BV2 microglia [1] = experiment: LPS-induced NO production in BV2 microglial cell line (Griess reaction); format: cell-based; details: for LPS-induced NO production: BV2, Src kinase inhibitor PP2 (5 μM) or PDTC (FIG. 18)
Procedure: Since the production of NO (nitric oxide) is a strong marker of inflammatory response in microglia, the effect of PTP1B on LPS-induced NO production was investigated through the Griess reaction. The production of NO was measured using the amount of nitrite. Naive microglia or microglia overexpressing PTP1B were treated with LPS (originated from E. coli 055: B5; Sigma). FIG. 6 illustrates the result of treatment with a BV2 microglial cell line at the indicated dose of LPS. FIG. 7 illustrates the results of treating a BV2 microglial cell line with 100 ng LPS at the indicated time. 24 hours after incubation, 5 μl the cell culture media was mixed with Griess reagent with the same volume (0.1% naphthylethylenediamine dihydrochloride and 1% sulfanylamine in 5% phosphoric acid) in a 96-well microtiter plate. Absorbance was read at 540 nm and sodium nitrite was used for standard curve generation.
In addition, the level of LPS-induced NO production after BV2 treatment with Src kinase inhibitor PP2 (5 μM) or PDTC (Ammonium pyrrolidinedithiocarbamate, NFκB inhibitor) was identified to determine whether Src is associated with LPS-induced microglia activity. This is illustrated in FIG. 18.
Next, it was determined whether the PTP1B-mediated proinflammatory response was dependent on Src activity in microglia. […] NO levels were measured in the treated BV2 microglia and the results are illustrated in FIG. 19.

[2] = test system: microglia (Iba-1 positive cells); experiment: Iba-1 positive activated microglia in brain of LPS-injected mice (brain inflammation model); format: in vivo, mouse; details: inhibitor intracerebrally, LPS 5 mg/kg i.p., 48 hours
Procedure: C57BL/6 mice were injected intracerebrally with vehicle (saline solution containing 0.5% DMSO and 5% propylene glycol) or the PTP inhibitor of Table 2 above (dilution in saline solution containing 5% propylene glycol). LPS (5 mg/kg) was intraperitoneally injected 30 minutes after injection. Mice were sacrificed and the brain was analyzed 48 hours after LPS injection.
The mouse model was divided into eight experimental groups; Group 1 treated with saline solution and 0.5% DMSO; Group 2 treated with LPS and 0.5% DMSO; Group 3 treated with LPS and PTP1B inhibitor; Group 4 treated with LPS and TC-PTP inhibitor; Group 5 treated with LPS and SHP2 inhibitor; Group 6 treated with LPS and MEG2 inhibitor; Group 7 treated with LPS and LYP inhibitor; and Group 8 treated with LPS and RPTPP inhibitor. The experimental design above is illustrated in FIG. 4A.
FIG. 4B illustrates the histochemical results of confirming whether the sacrificed mouse brain is morphologically changed by straining the antibody against Iba-1, a marker of microglia.
In addition, the brains were removed and sectioned, and the hippocampus, cortex and thalamus were stained with an antibody against Iba-1. The results of histochemical confirmation are illustrated in FIG. 4C. The results of graphical representation of the number of Iba-1 positive cells per mm^2 are illustrated in FIG. 4D.

PTP1B = target: T1, PTP1B (Homo sapiens, UniProt P18031); details: statement without data; inhibitor obtained from Dr. Zhang group; cited from earlier work
T1 sequence (P18031 1-435): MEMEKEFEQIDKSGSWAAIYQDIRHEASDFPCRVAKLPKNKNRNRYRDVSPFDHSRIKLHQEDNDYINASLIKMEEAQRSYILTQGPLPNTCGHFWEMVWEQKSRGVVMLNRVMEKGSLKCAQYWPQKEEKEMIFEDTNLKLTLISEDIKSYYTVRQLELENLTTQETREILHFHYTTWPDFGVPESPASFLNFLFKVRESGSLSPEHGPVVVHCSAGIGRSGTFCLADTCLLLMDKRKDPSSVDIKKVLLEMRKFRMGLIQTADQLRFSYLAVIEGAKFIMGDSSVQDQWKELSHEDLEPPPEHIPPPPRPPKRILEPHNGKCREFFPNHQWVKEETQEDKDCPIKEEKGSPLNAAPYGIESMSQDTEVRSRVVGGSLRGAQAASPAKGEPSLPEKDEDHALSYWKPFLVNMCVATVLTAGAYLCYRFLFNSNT

primary microglia = experiment: LPS-induced NO production in mouse primary microglia; format: cell-based; details: 5 μM iPTP1B, LPS 50 ng/ml 24 hours (FIG. 10)
Source text: NO levels were confirmed in the stimulated primary microglia.

Src = experiment: Phosphorylation of Src at Y527 in brain of LPS-injected inflammatory mouse model; format: in vivo; details: LPS+iPTP1B or iPTP1B injected into the brain, after 24 hours (FIG. 20)
Procedure: In addition, in vivo experiments were carried out using an inflammatory mouse model injected with LPS to identify the effect of PTP1B on phosphorylation of Src at Y527 in vivo. […] At this time, total Src and beta-actin were used as a loading control group and Lnc2 was used as a marker of neuroinflammation. The results are illustrated in FIG. 20.

BV2 microglia [3] = experiment: TNFα protein ELISA in BV2 microglial culture media; format: cell-based; details: BV2, LPS, 24-hour incubation, ELISA (FIG. 15)
Procedure: In addition, the level of TNFα protein in the BV2 microglial culture media treated with LPS as described above was confirmed by ELISA. […] After 24-hour incubation, the TNFα levels in the culture media were measured using a rat monoclonal anti-mouse TNFα antibody as the capture antibody and a goat biotinylated polyclonal anti-mouse TNFα antibody as the detection antibody. The measured levels of TNFα protein results are illustrated in FIG. 15.

brain tissues = experiment: Real-time PCR of TNFα and IL1β expression in brain tissue after LPS and iPTP1B injection; format: in vivo, mouse; details: real-time PCR 6 hours after injection of LPS (FIG. 23)
Procedure: The expression level of TNFα and IL1β genes, which are proinflammatory factors, was measured by real-time PCR 6 hours after the injection of LPS, and the results are illustrated in FIG. 23.

BV2 microglia [4] = experiment: RT-PCR of LPS-induced proinflammatory molecule mRNA in BV2 microglia; format: cell-based; details: BV2, LPS 100 ng/ml 6 hours, RT-PCR (FIGS. 13, 14)
Source text: The results are illustrated in FIG. 13.

HAPI cells [5] = experiment: LPS-induced NO production in HAPI rat microglial cell line; format: cell-based; details: 10 μM iPTP1B 1 hour, LPS 100 ng/ml 24 hours (FIG. 11)
Source text: NO levels were confirmed in the stimulated rat microglial cell line, HAPI cells.

HAPI cells [6] = experiment: TNFα-induced NO production in HAPI rat microglial cell line; format: cell-based; details: 10 μM iPTP1B 1 hour, TNFα 100 ng/ml 24 hours (FIG. 12)
Source text: NO levels were identified in the stimulated cells.

In the case of N.S=C(S)N1CCCC1 [PDTC, Ammonium pyrrolidinedithiocarbamate], the “LPS-induced NO production” value (BV2 microglia [1]) is reported as “inhibited significantly”.

For CC(C)(C)n1nc(-c2ccc(Cl)cc2)c2c(N)ncnc21 [PP2], the “dose dependence of inhibition of LPS-induced NO production” value (BV2 microglia [1]; BV2, PP2 pretreatment (FIG. 18)) was “dose-dependent”, the “LPS-induced NO production” value (BV2 microglia [1]) was “inhibited significantly” and the “NO levels: effect on the anti-inflammatory effect of iPTP1B” value (BV2 microglia [1]; BV2 pretreated with PP2 or iPTP1B 1 hour, LPS 24 hours (FIG. 19)) was “eliminated the anti-inflammatory effect of iPTP1B”.

In the case of Cn1c(-c2cccc(NC(=O)CNC(=O)c3cc(Br)cc(I)c3)c2)c(I)c2cc(C(=O)O)c(O)cc21 [RPTPβ inhibitor, 2-(3-(2-(3-bromo-5-iodobenzamido)acetamido)phenyl)-6-hydroxy-3-iodo-1-methyl-1H-indole-5-carboxylic acid], the “activation of LPS-induced microglia (Iba-1 positive cells) in the cortex” value (“activation … in the cortex” below) [2] is reported as “decrease the activation of LPS-induced microglia” and the “activation of LPS-induced microglia (Iba-1 positive cells) in the hippocampus” value (from here on “activation … in the hippocampus”) [2] is reported as “decrease the activation of LPS-induced microglia”.

With CCc1ccc(C(=O)NCCCC[C@H](NC(=O)[C@H](Cc2ccc(C(F)(F)P(=O)(O)O)cc2)NC(=O)[C@H](Cc2ccccc2)NC(=O)CO[C@@H]2C[C@@H](C)CC[C@@H]2C(C)C)C(N)=O)cc1 [TC-PTP inhibitor] the “activation … in the cortex” value [2] was “decrease the activation of LPS-induced microglia”.

With “((4-((S)-3-(((S)-1-amino-3-(2-(4-hydroxy-3-methoxyphenyl)acetamido)-1-oxopropan-2-yl)amino)-5-(3-iodobenzamido)-1-oxopentan-2-yl)amino)-6-hydroxy-3-iodo-1-methyl-2-(3-(2-oxo-2-((4-thiophen-3-yl)phenyl)amino)acetamido)phenyl)-1H-indole-5-carboxlic acid [SHP2 inhibitor]” the “activation … in the hippocampus” value [2] was “decrease the activation of LPS-induced microglia”.

In the case of “(S)-4-(((S)-1-(12-azanyl)-3-(4-(difluoro(phosphono)methyl)phenyl)-1-oxopropan-2-yl)amino)-3-((S)-3-(4-(difluoro(phosphono)methyl)phenyl)-2-pentadecanamidopropanamido)-4-oxobutanoic acid [iPTP1B]”, the “specificity for PTP1B” value (PTP1B) is listed as “highly specific to PTP1B”, the “level of LPS-induced NO” value (primary microglia) is listed as “significantly decreased” and the “level of LPS-induced NO” value (BV2 microglia [1]; BV2, different concentrations of iPTP1B, LPS 100 ng/ml (FIG. 9)) is listed as “dose-dependently decreased”. For the same molecule, the “NO production, treatment with inhibitor alone (basic level)” value (BV2 microglia [1]; BV2, iPTP1B alone without LPS) was “did not inhibit or increase NO production”, the IC50 (BV2 microglia [1]; BV2, pretreated 1 hour, LPS 100 ng/ml, Griess method (FIG. 9), read-out: IC50 for level of LPS-induced NO) was 10.3 µM and the “activation … in the cortex” value [2] was “decrease the activation of LPS-induced microglia”. For the same molecule, the “activation … in the hippocampus” value [2] was “decrease the activation of LPS-induced microglia”, the “phosphorylation of Src at Y527 in vivo” value (Src) was “increased phosphorylation of Src at Y527” and the “expression level of TNFα protein in the culture media” value (BV2 microglia [3]) was “significantly low”. For the same molecule, the “expression of IL1β gene in brain” value (brain tissues) was “significantly weakened”, the “expression of TNFα gene in brain” value (brain tissues) was “significantly weakened” and the “LPS-induced IL1β mRNA expression” value (BV2 microglia [4]; 10 M iPTP1B) was “significantly inhibits”. The “LPS-induced TNFα mRNA expression” value (BV2 microglia [4]; 10 M iPTP1B) was “significantly inhibits”, the “LPS-induced iNOS mRNA expression” value (BV2 microglia [4]; 10 M iPTP1B) was “significantly inhibits” and the “LPS-induced Cox2 mRNA expression” value (BV2 microglia [4]; iPTP1B) was “significantly inhibits”. The “level of LPS-induced NO” value (HAPI cells [5]) was “significantly decreased” and the “TNFα-induced NO level” value (HAPI cells [6]) was “significantly decreased”.

From patent US20200384001A1, “COMPOSITION FOR PREVENTION OR TREATMENT OF NEUROINFLAMMATORY DISEASE, CONTAINING PROTEIN TYROSINE PHOSPHATASE” (KYUNGPOOK NATIONAL UNIVERSITY INDUSTRY - ACADEMIC …, priority 2015, published 2020)
